What was measured:
[1] = target: T1, Paired box protein Pax-3 (Homo sapiens, UniProt P23760); assay: Inhibition of PAX3-FOXO1 (unknown origin) fusion protein expressed human Rh4 cells cotransfected with ALK-Luc incubated for 24 hrs by Steady-Glo luciferase assay
[2] = target: T1, Paired box protein Pax-3; assay: Inhibition of PAX3-FOXO1 (unknown origin) fusion protein expressed human Rh4 cells cotransfected with CMV-Luc incubated for 24 hrs by Steady-Glo luciferase assay

T1 sequence (P23760 whole entry, the tested form may be a part): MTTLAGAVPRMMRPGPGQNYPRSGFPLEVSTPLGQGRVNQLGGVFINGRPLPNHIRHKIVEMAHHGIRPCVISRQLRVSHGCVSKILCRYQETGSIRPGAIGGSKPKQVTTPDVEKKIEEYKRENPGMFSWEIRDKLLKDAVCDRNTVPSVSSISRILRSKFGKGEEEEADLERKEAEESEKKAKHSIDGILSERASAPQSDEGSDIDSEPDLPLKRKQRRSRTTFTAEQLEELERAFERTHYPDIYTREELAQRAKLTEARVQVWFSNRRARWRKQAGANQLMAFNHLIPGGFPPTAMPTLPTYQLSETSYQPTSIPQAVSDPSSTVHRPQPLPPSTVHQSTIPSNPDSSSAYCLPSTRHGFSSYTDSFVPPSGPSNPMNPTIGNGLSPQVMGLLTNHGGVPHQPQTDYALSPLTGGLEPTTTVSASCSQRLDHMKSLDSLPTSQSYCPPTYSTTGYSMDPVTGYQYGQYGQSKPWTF

Row | Compound | IC50 [1] [µM] | IC50 [2] [µM]
1 | COC1=C(C)C(=O)c2c(cn(C)c(=O)c2NCCS(=O)(=O)Oc2c(C)c(OC)c(O)c3c[n+](C)ccc23)C1=O | 5.4 | 9.4
2 | COC1=C(C)C(=O)c2c(cn(C)c(=O)c2NCCS(=O)(=O)Oc2c(C)c(OC)c(O)c3c[n+](C)c(C(=O)O)cc23)C1=O | 5.7 | 9.8
3 | COC(=O)c1cc2c(OS(=O)(=O)CCNc3c4c(cn(C)c3=O)C(=O)C(OC)=C(C)C4=O)c(C)c(OC)c(O)c2c[n+]1C | 6.4 | 11.8
